≈ marks a conversion by molar mass, not a printed value.
Assays:
IDO1 = molecular target: T1, IDO1 (Homo sapiens, UniProt P14902); assay: Enzyme-based IDO1 activity assay; assay type: biochemical; conditions: for IC50 / Enzymatic assay IC50 (hIDO1): purified human IDO1 enzyme; for IC50: read-out: Enzymatic assay IC50 (hIDO1); for Inhibition ratio (%) @10 μM: 10 μM compound, purified recombinant IDO1
T1 construct: made in house

HeLa (IDO1) = HeLa (IDO1) (Homo sapiens, UniProt P14902); assay: Cell-based IDO1 activity assay (HeLa kynurenine assay); conditions: IFN-γ stimulated HeLa cells; for EC50: 24 h, read-out: Cellular assay EC50 HeLa (IDO1); for Hill slope of the curves (cellular dose response): Figure 9
Sequence of HeLa (IDO1) (P14902 whole entry): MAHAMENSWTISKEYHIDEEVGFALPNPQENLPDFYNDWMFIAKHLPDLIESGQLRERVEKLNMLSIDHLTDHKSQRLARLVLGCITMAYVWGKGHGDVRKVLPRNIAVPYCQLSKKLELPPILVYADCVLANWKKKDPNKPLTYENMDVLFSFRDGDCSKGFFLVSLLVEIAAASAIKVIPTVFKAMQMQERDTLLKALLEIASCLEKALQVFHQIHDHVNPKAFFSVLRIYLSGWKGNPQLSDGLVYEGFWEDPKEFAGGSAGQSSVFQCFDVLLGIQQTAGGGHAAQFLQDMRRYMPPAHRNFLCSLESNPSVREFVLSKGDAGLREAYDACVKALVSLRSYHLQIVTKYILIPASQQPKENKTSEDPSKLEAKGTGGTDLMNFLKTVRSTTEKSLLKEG
Experimental: After incubation for 24 h, 140 µL of supernatant was mixed with 10 µL of 6.1 N trichloroacetic acid and the mixture was incubated for 30 min at 60 °C. The reaction mixture was then centrifuged for 20 min at 4000 rpm at 0 °C to remove sediments. About 100 µL of the supernatant was mixed with 100 µL of 2% (w/v) p-DMAB in acetic acid and measured at 480 nm. The final DMSO concentration was 0.5%. The data were analysed using Graphpad Prism 6.
The HeLa-based cellular assay is informative for drug development, as it evaluates not only the IDO1 inhibitory effect of the compounds but also their capacity to permeate the cell, their inhibition of tryptophan and kynurenine transport and their potential cytotoxicity. […] In addition, since the inhibition of tryptophan degradation could simply be an effect of cytotoxicity, thus the determination of cell viability was necessary when reporting cellular IC50 values. In the initial work, all of the screened compounds were determined for their cell viability using the classical MTT assy.

HeLa = conditions: Figure 1, literature value; cited from earlier work
SKOV3 = system: SKOV3; parameters: method as in earlier work; conditions: Figure 1, literature values; 27 (4), 28 (5); cited from earlier work
[1] = Water solubility evaluation (Avdeef–Bucher potentiometric titration); assay type: physicochemical; conditions: thermodynamic from solid
Experimental: The aqueous solubility was determined on a Gemini Profiler instrument (pION) by the “goldstandard” Avdeef–Bucher potentiometric titration method[46]^,[47].

T1 sequence (P14902 whole entry): as above

Compound `CCc1nc(SCC(=O)Nc2sc3c(c2C#N)CCC3)c(C#N)cc1C` [LVS-047] has an IC50 (IDO1) of 21.2 ± 7.1 µM.
With `CCOc1ccc(/C=c2\sc3nnc(-c4ccccc4Cl)n3c2=O)cc1` [LVS-015] the “Inhibition ratio (%) @10 μM” value (IDO1) was 11.05 ± 0.02%.
With `CN1CCc2nc(SCC(=O)Nc3ccccc3)c(C#N)cc2C1` [LVS-054] the “Enzymatic assay IC50 (hIDO1)” value (IDO1) was “Not Converged”.
For `N#Cc1c(C(F)(F)F)cc(-c2cccs2)nc1SCC(=O)Nc1ccc2ccccc2c1` [LVS-034], the IC50 (IDO1) was 66.2 ± 14.3 µM.
With `N#Cc1cccnc1OCC(=O)Nc1ccc(F)cc1` [LBJ-01, 2-((3-Cyanopyridin-2-yl)oxy)-N-(4-fluorophenyl)acetamide] the melting point was 234 to 236 °C and the IC50 (IDO1) was 19.5 ± 0.28 µM.
With `O=[N+]([O-])c1ccc(Oc2nsnc2N2CCOCC2)cc1` [LVS-018] the IC50 (IDO1) was 18.4 ± 2.31 µM.
With `O=C(Nc1ccc2nsnc2c1)c1ccc(F)cc1` [LVS-006] the “Inhibition ratio (%) @10 μM” value (IDO1) was 15.83 ± 0.18%.
With `N#Cc1cc2c(nc1SCC(=O)Nc1nccs1)CCCCC2` [LVS-043] the IC50 (IDO1) was 21.7 ± 3.18 µM.
For `COc1cccc(NC(=O)CSc2nc(N)c(C#N)cc2C#N)c1` [LVS-008], the “Inhibition ratio (%) @10 μM” value (IDO1) was 4.31 ± 0.04%.
For `Cc1cc(C)c(C#N)c(SCC(=O)Nc2ccc(Cl)c(Cl)c2)n1` [LVS-039], the EC50 (HeLa (IDO1)) was 3.42 ± 0.56 µM, the “Hill slope of the curves (cellular dose response)” value (from here on “Hill slope of the curves”) (HeLa (IDO1)) was 0.69 and the IC50 (IDO1) was 2.57 ± 0.42 µM.
`Cc1cc(C)c(C#N)c(SCC(=O)Nc2sc(C)c(C)c2C#N)n1` [LVS-036] showed an IC50 (IDO1) of 78.7 ± 8.46 µM.
Compound `N#Cc1ccncc1SCC(=O)Nc1ccc(F)cc1` [LBJ-04, 2-((4-Cyanopyridin-3-yl)thio)-N-(4-fluorophenyl)acetamide] has a melting point of 206 to 209 °C and an IC50 (IDO1) of 43.6 ± 0.85 µM.
With `Cc1ccc(NC(=O)CSc2nc(C(F)(F)F)ccc2C#N)cc1` [LBJ-12, 2-((3-Cyano-6-(trifluoromethyl)pyridin-2-yl)thio)-N-(p-tolyl)acetamide] the melting point was 212 to 214 °C and the IC50 (IDO1) was 17.9 ± 1.28 µM.
For `Cc1cc(C(F)(F)F)c(C#N)c(SCC(=O)Nc2ncc(Br)cc2Br)n1` [LVS-052], the IC50 (IDO1) was 1.38 ± 0.57 µM.
`Sc1nnc(-c2csc3c2CCCC3)n1Cc1ccccc1` [LVS-032] showed an IC50 (IDO1) of 10.4 ± 1.01 µM.
`O=C(CSc1cccc(C(F)(F)F)n1)Nc1ccc(F)c(Cl)c1` [LBJ-14, N-(3-Chloro-4-fluorophenyl)-2-((6-(trifluoromethyl)pyridin-2-yl)thio)acetamide] gave a melting point of 86 to 88 °C and an IC50 (IDO1) of 35.7 ± 1.25 µM.
In the case of “2-((3-Cyano-6-(trifluoromethyl)pyridin-2-yl)thio)-N-(p-tolyl)acetamide [LBJ-13]”, the IC50 (IDO1) is reported as 23.6 ± 2.11 µM.
For `Cn1cc(C[C@@H](N)C(=O)O)c2ccccc21` [Compound 1, 1-methyl-D-tryptophan], the IC50 (HeLa) is listed as 1500 µM.
With `N#Cc1c(C(F)(F)F)cc(-c2cccs2)nc1SCC(=O)Nc1ccc(F)cc1` [LVS-037] the IC50 (IDO1) was 54.7 ± 4.7 µM.
For “4-amino-1,2,5-oxadiazole-3-carboximidamide [Compound 6]”, the IC50 (HeLa) is given as 1 µM.
In the case of `C[C@@H](C(=O)Nc1ccc(Cl)cc1)C1CCC(c2ccnc3ccc(F)cc23)CC1` (stereo partly shown) [Compound 5], the IC50 (SKOV3) is given as 0.0034 µM.
Compound `N#Cc1ccc(C(F)(F)F)nc1SCC(=O)Nc1ccccc1` [LBJ-11, 2-((3-Cyano-6-(trifluoromethyl)pyridin-2-yl)thio)-N-phenylacetamide] has a melting point of 230 to 233 °C and an IC50 (IDO1) of 9.61 ± 0.71 µM.
`COc1ccc(-c2ccc(C#N)c(SCC(=O)Nc3ccccc3Br)n2)cc1` [LVS-040] showed an IC50 (IDO1) of 74.7 ± 15.2 µM.
In the case of `O=C(CSc1nnc2scc(-c3ccc(Cl)cc3)n12)Nc1ccc(F)cc1` [LVS-005], the “Inhibition ratio (%) @10 μM” value (IDO1) is reported as 30.73 ± 0.93%.
With `N#Cc1ccc(C(F)(F)F)nc1SCC(=O)Nc1ccccc1F` [LBJ-09, 2-((3-Cyano-6-(trifluoromethyl)pyridin-2-yl)thio)-N-(2-fluorophenyl)acetamide] the melting point was 208 to 211 °C and the IC50 (IDO1) was 5.81 ± 1.2 µM.
Work on `N#Cc1cnccc1SCC(=O)Nc1ccc(F)cc1` [LBJ-05, 2-((3-Cyanopyridin-4-yl)thio)-N-(4-fluorophenyl)acetamide] yielded a melting point of 232 to 234 °C and an IC50 (IDO1) of 18 ± 0.13 µM.
In the case of `CCN(CC)C(=O)CSc1nc(C)cc(C)c1C#N` [LVS-033], the IC50 (IDO1) is reported as 36.6 ± 5.46 µM.
For `N#Cc1ccccc1SCC(=O)Nc1ccc(F)cc1` [LBJ-02, 2-((2-Cyanophenyl)thio)-N-(4-fluorophenyl)acetamide], the melting point was 215 to 217 °C.
With `Cc1sc2nc(SCC(=O)c3ccc(F)cc3)n(N)c(=O)c2c1C` [LVS-001] the IC50 (IDO1) was 14.2 ± 1.43 µM.
In the case of `O=C1CC(c2c[nH]c3ccc(F)cc23)C(=O)N1` (stereo not shown) [Compound 4], the IC50 (SKOV3) is given as 0.07 µM.
For `NS(=O)(=O)NCCNc1nonc1C(=NO)Nc1ccc(F)c(Br)c1` [Compound 3], the IC50 (HeLa) is listed as 0.0071 µM.
Work on `N#Cc1ccc(C(F)(F)F)nc1SCC(=O)Nc1ccc(F)cc1` [LBJ-08, 2-((3-Cyano-6-(trifluoromethyl)pyridin-2-yl)thio)-N-(4-fluorophenyl)acetamide] yielded a melting point of 201 to 204 °C and an IC50 (IDO1) of 1.87 ± 0.83 µM.
For `O=C(Cn1nnnc1-c1ccccc1)c1ccc(Br)cc1` [LVS-030], the “Inhibition ratio (%) @10 μM” value (IDO1) was 2.00 ± 0.28%.
`N#Cc1cccnc1SCC(=O)Nc1ccc(F)cc1` [LBJ-03, 2-((3-Cyanopyridin-2-yl)thio)-N-(4-fluorophenyl)acetamide] showed a melting point of 198 to 201 °C, a solubility [1] of 75 µg/mL (≈ 261 µM) and an IC50 (IDO1) of 9.14 ± 0.38 µM.
In the case of `Cc1ccc(NC(=O)COc2ccccc2CO)cc1` [LVS-014], the “Inhibition ratio (%) @10 μM” value (IDO1) is reported as 11.62 ± 1.19%.
With `Cc1cc(C)c(C#N)c(SCC(=O)Nc2nccs2)n1` [LVS-055] the “Enzymatic assay IC50 (hIDO1)” value (IDO1) was “Not Converged”.
For `Cc1cc(C)c(C#N)c(SCC(=O)Nc2cccc(C)c2C)n1` [LVS-038], the “Enzymatic assay IC50 (hIDO1)” value (IDO1) was “Not Converged”.
`N#Cc1ncccc1SCC(=O)Nc1ccc(F)cc1` [LBJ-06, 2-((2-Cyanopyridin-3-yl)thio)-N-(4-fluorophenyl)acetamide] gave a melting point of 211 to 213 °C.
Work on `N#Cc1cc2c(nc1SCC(=O)Nc1sc3c(c1C#N)CCCC3)CCCCCC2` [LVS-049] yielded an IC50 (IDO1) of 14.8 ± 3.14 µM.
Work on `Cn1c(COc2ccccc2)c(C#N)c2ccccc21` [LVS-002] yielded an IC50 (IDO1) of 8.08 ± 1.3 µM.
For `COc1ccccc1-c1cc(C(=O)O)c2ccccc2n1` [LVS-020], the “Inhibition ratio (%) @10 μM” value (IDO1) was 0.11 ± 1.98%.
In the case of `O=c1c2c(-c3ccc([N+](=O)[O-])cc3)csc2nc2n1CCC2` [LVS-004], the “Inhibition ratio (%) @10 μM” value (IDO1) is reported as 9.65 ± 0.09%.
In the case of `COCc1cc(C)nc(SCC(=O)Nc2ccc(C)c(C)c2)c1C#N` [LVS-035], the IC50 (IDO1) is reported as 27.6 ± 6.82 µM.
In the case of `O=C(CS(=O)(=O)c1ccccc1)Nc1ccc(Br)cn1` [LVS-022], the “Inhibition ratio (%) @10 μM” value (IDO1) is reported as 21.29 ± 0.22%.
In the case of `O=S(=O)(NC1CCCc2ccccc21)c1ccc(Br)cc1` (stereo not shown) [LVS-027], the “Inhibition ratio (%) @10 μM” value (IDO1) is reported as 3.37 ± 0.04%.
For `N#Cc1cc2c(nc1SCC(=O)Nc1cc(Cl)cc(Cl)c1)C1CCN2CC1` [LVS-053], the “Enzymatic assay IC50 (hIDO1)” value (IDO1) was “Not Converged”.
In the case of `CC(C)c1ccc(C#N)c(SCC(=O)Nc2ccc(F)cc2)n1` [LVS-019], the EC50 (HeLa (IDO1)) is reported as 7.68 ± 0.27 µM, the “Hill slope of the curves” value (HeLa (IDO1)) is reported as 1.11 and the IC50 (IDO1) is reported as 2.64 ± 0.94 µM.
`N#Cc1cc2c(nc1SCC(=O)Nc1ccc(F)cc1)CCCC2` [LVS-044] gave an IC50 (IDO1) of 49.3 ± 10 µM.
With `Cc1nc(SCC(=O)Nc2sc3c(c2C#N)CCC3)c(C#N)c(C)c1C` [LVS-046] the “Enzymatic assay IC50 (hIDO1)” value (IDO1) was “Not Converged”.
For `COc1cc2c(cc1OC)CN(C(=O)CSc1nc(C)cc(C)c1C#N)CC2` [LVS-051], the “Enzymatic assay IC50 (hIDO1)” value (IDO1) was “Not Converged”.
In the case of `Cc1cc(C(F)(F)F)nc(SCC(=O)Nc2sc3c(c2C#N)CCC3)c1C#N` [LVS-048], the EC50 (HeLa (IDO1)) is reported as 9.4 ± 0.07 µM, the “Hill slope of the curves” value (HeLa (IDO1)) is reported as 0.70 and the IC50 (IDO1) is reported as 8.76 ± 1.74 µM.
With `Cc1ccc(C#N)c(SCC(=O)Nc2ccc(F)cc2)n1` [LBJ-07, 2-((3-Cyano-6-methylpyridin-2-yl)thio)-N-(4-fluorophenyl)acetamide] the melting point was 238 to 240 °C and the IC50 (IDO1) was 20.6 ± 1.12 µM.
`COc1cccc(-c2ccc(C#N)c(SCC(=O)Nc3ccccc3Cl)n2)c1` [LVS-042] showed an IC50 (IDO1) of 38.5 ± 6.09 µM.
`COc1cccc(-c2ccc(C#N)c(SCC(=O)Nc3cccc(C)c3)n2)c1` [LVS-041] showed an IC50 (IDO1) of 55.1 ± 10.1 µM.
`Cc1cc(C)c(C#N)c(SCC(=O)Nc2sc3c(c2C#N)CCC3)n1` [LVS-045] showed an IC50 (IDO1) of 26 ± 9.64 µM.
With `CN1CCc2nc(SCC(=O)Nc3sc4c(c3C#N)CCCC4)c(C#N)cc2C1` [LVS-050] the “Enzymatic assay IC50 (hIDO1)” value (IDO1) was “Not Converged”.
With `O=S(=O)(c1cccc2cccc(Cl)c12)N1CCCC1` [LVS-013] the “Inhibition ratio (%) @10 μM” value (IDO1) was 14.15 ± 0.38%.
In the case of `Cc1ccc(C(=O)CC2(O)C(=O)N(C)c3ccccc32)cc1` (stereo not shown) [LVS-029], the “Inhibition ratio (%) @10 μM” value (IDO1) is reported as 9.91 ± 0.65%.
With `Cn1c(=O)c(Sc2ccc(Cl)cc2)c(O)c2ccccc21` [LVS-023] the “Inhibition ratio (%) @10 μM” value (IDO1) was 10.22 ± 1.11%.
